According to patent publication US20250241890A1, “1,4-DIUREAS AND 1,4-DITHIOUREAS AND USES THEREOF” (Purdue Research Foundation, priority 2024, published 2025):
Entries after “also recorded” stand apart in the source; their conditions may differ.

Legend:
Format in all cases: biochemical
α-synuclein (α-syn) [1] = biological target: T1, α-synuclein (α-syn) (Homo sapiens, UniProt P37840); experiment: Thioflavin T (ThT) fluorescence assay of α-syn fibril formation; details: α-syn 2 μM final concentration, compounds at 100 μM, average of three replicates with SEM; read-out: % ThT intensity (100 μM), maximum ThT intensity in percentage
T1 construct: purchased rPeptide (Watkinsville, GA)
Method: Chemical and peptide source. Dimethylsulfoxide (DMSO) and thioflavin-T (ThT) were purchased from Alfa Aesar (Ward Hill, MA). Recombinant α-synuclein (α-syn) was procured from rPeptide (WatKinsville, GA). The recombinant p-tau isoform 1N4R was prepared as published previously (Fortin et al. 2021, Sui et al. 2015, Liu et al. 2020). Concerning the preparation of tau 0N4R, a bacterial expression plasmid consisting of the vector pET30a carrying a cDNA encoding the human Tau 0N4R isoform was a kind gift of Dr. Benjamin Wolozin (Boston University). E. coli stock (Rosetta BL21 E. coli (CamR) containing pET30a [0N4R tau wt] (KanR)) was grown in LB medium supplemented with kanamycin (50 μg/mL) and chloramphenicol (50 μg/mL). Protein over-expression was induced by the addition of 1 mM IPTG for ˜18 hours at 37° C., and cells were pelleted by centrifugation at 6,000 g for 15 minutes at 4° C. The cells were resuspended in lysis buffer (10 mM Hepes, pH 7.4, 50 mM NaCl, 1 mM MgCl2, 1 mM PMSF, 1× PIC, and 0.5 mM DTT) and lysed by sonication at 30 seconds “On” and 1 minute “Off” at ˜30-45% power for ˜3-5 minutes. Lysate was centrifuged at 10,000 rpm for 10 minutes at 4° C., and supernatant was transferred with 7.8 ml (total) of 3M NaCl. The lysate was incubated for 10 minutes in 80° C. water bath, then cooled for 10 minutes in an ice bath. The lysate was centrifuged at 10,000 rpm at 4° C. for 10 minutes, and the supernatant was transferred to a new tube. The supernatant was dialyzed overnight against cation exchange buffer (50 mM MES, […], 1 mM DTT, pH 6.0). The dialysate was loaded onto a HiPrep SP HP column, and proteins were eluted with a linear gradient ranging from 50 mM to 1 M NaCl. General Characterizations. ^1H and ^13C {1H} NMR spectra were recorded using a 500 MHz Bruker instrument working at a frequency of 500 MHz for ^1H and at 126 MHz for ^13C. Chemical shifts are reported in ppm using residual solvent resonances as internal reference (δ 2.50 and δ 39.51 for ^1H and ^13C in DMSO-d6, respectively). ^1H NMR data are reported as follows. b=broad, s=singlet, d=doublet, t=triplet, q=quartet, and m=multiplet. Coupling constants are given in hertz. The purity of all compounds and synthetic intermediates was judged to be 95% or better based on ^1H NMR. IR measurements were performed in a Nicolet FTIR as thin films in the Purdue Drug Discovery facility. High-resolution mass spectrometry analyses were conducted at the MSU Mass Spectrometry facility. Thioflavin fluorescence assays. […] The recombinant α-syn obtained from rPeptide has been validated with proper quality control to confirm the monomeric state of the protein. Kinetics of fibril formation have been performed using ThT as published previously.^6, 12, 13, 24 The fluorescence emission experiments were performed with the excitation and emission wavelengths set at 440 and 485 nm, respectively, with a Synergy HT multi-mode microplate reader (BioTek, Winooski, VT). Samples were measured in three replicates. Experiments were repeated three times using different α-syn stock solutions. For each time point, arbitrary units of fluorescence were calculated from the mean values normalized against the maximum value. The percentage of fluorescence intensity at the plateau phase in Table 1 was expressed as mean #SEM. Concerning the dose response curve depicted in FIG. 2, the data were plotted using GraphPad Prism. Photo-induced Cross-linking of Unmodified Proteins (PICUP) Assay. To induce oligomerization by cross-linking, α-syn (from Rpeptide, LLC) was diluted in 10 mM phosphate buffer (pH 7.4) to reach a final concentration of 50 μM. Different compounds were added to the protein solution at a final concentration of 50 μM, resulting in a molar ratio of 1:1. PICUP assays were performed with the following controls: samples without light exposition, without Ru(bpy) or ammonium persulfate, and without compound (i.e., 0.125% DMSO). […]

α-synuclein (α-syn) [2] = biological target: T1, α-synuclein (α-syn); experiment: PICUP assay of α-syn oligomer formation; details: α-syn 60 μM, compound 50 μM (~molar ratio 1:1)
Method: Chemical and peptide source. Dimethylsulfoxide (DMSO) and thioflavin-T (ThT) were purchased from Alfa Aesar (Ward Hill, MA). Recombinant α-synuclein (α-syn) was procured from rPeptide (WatKinsville, GA). The recombinant p-tau isoform 1N4R was prepared as published previously (Fortin et al. 2021, Sui et al. 2015, Liu et al. 2020). Concerning the preparation of tau 0N4R, a bacterial expression plasmid consisting of the vector pET30a carrying a cDNA encoding the human Tau 0N4R isoform was a kind gift of Dr. Benjamin Wolozin (Boston University). E. coli stock (Rosetta BL21 E. coli (CamR) containing pET30a [0N4R tau wt] (KanR)) was grown in LB medium supplemented with kanamycin (50 μg/mL) and chloramphenicol (50 μg/mL). Protein over-expression was induced by the addition of 1 mM IPTG for ˜18 hours at 37° C., and cells were pelleted by centrifugation at 6,000 g for 15 minutes at 4° C. The cells were resuspended in lysis buffer (10 mM Hepes, pH 7.4, 50 mM NaCl, 1 mM MgCl2, 1 mM PMSF, 1× PIC, and 0.5 mM DTT) and lysed by sonication at 30 seconds “On” and 1 minute “Off” at ˜30-45% power for ˜3-5 minutes. Lysate was centrifuged at 10,000 rpm for 10 minutes at 4° C., and supernatant was transferred with 7.8 ml (total) of 3M NaCl. The lysate was incubated for 10 minutes in 80° C. water bath, then cooled for 10 minutes in an ice bath. The lysate was centrifuged at 10,000 rpm at 4° C. for 10 minutes, and the supernatant was transferred to a new tube. The supernatant was dialyzed overnight against cation exchange buffer (50 mM MES, […], 1 mM DTT, pH 6.0). The dialysate was loaded onto a HiPrep SP HP column, and proteins were eluted with a linear gradient ranging from 50 mM to 1 M NaCl. General Characterizations. ^1H and ^13C {1H} NMR spectra were recorded using a 500 MHz Bruker instrument working at a frequency of 500 MHz for ^1H and at 126 MHz for ^13C. Chemical shifts are reported in ppm using residual solvent resonances as internal reference (δ 2.50 and δ 39.51 for ^1H and ^13C in DMSO-d6, respectively). ^1H NMR data are reported as follows. b=broad, s=singlet, d=doublet, t=triplet, q=quartet, and m=multiplet. Coupling constants are given in hertz. The purity of all compounds and synthetic intermediates was judged to be 95% or better based on ^1H NMR. IR measurements were performed in a Nicolet FTIR as thin films in the Purdue Drug Discovery facility. High-resolution mass spectrometry analyses were conducted at the MSU Mass Spectrometry facility. Thioflavin fluorescence assays. Thioflavin fluorescence assays were used to monitor fibril formation of commercial recombinant α-syn at a final concentration of 2 μM and treated with control DMSO and different compounds. The recombinant α-syn obtained from rPeptide has been validated with proper quality control to confirm the monomeric state of the protein. Kinetics of fibril formation have been performed using ThT as published previously.^6, 12, 13, 24 The fluorescence emission experiments were performed with the excitation and emission wavelengths set at 440 and 485 nm, respectively, with a Synergy HT multi-mode microplate reader (BioTek, Winooski, VT). Samples were measured in three replicates. Experiments were repeated three times using different α-syn stock solutions. For each time point, arbitrary units of fluorescence were calculated from the mean values normalized against the maximum value. The percentage of fluorescence intensity at the plateau phase in Table 1 was expressed as mean #SEM. Concerning the dose response curve depicted in FIG. 2, the data were plotted using GraphPad Prism. Photo-induced Cross-linking of Unmodified Proteins (PICUP) Assay. […] Different compounds were added to the protein solution at a final concentration of 50 μM, resulting in a molar ratio of 1:1. PICUP assays were performed with the following controls: samples without light exposition, without Ru(bpy) or ammonium persulfate, and without compound (i.e., 0.125% DMSO). […]

tau isoform 0N4R = biological target: T2, tau isoform 0N4R (Homo sapiens, UniProt P10636); experiment: PICUP assay of tau 0N4R oligomer formation; details: tau 10 μM, compound 50 μM (molar ratio 1:5)
T2 construct: made in house; host or cells: Rosetta BL21 E. coli
T2 sequence (P10636 1-383 isoform P10636-6): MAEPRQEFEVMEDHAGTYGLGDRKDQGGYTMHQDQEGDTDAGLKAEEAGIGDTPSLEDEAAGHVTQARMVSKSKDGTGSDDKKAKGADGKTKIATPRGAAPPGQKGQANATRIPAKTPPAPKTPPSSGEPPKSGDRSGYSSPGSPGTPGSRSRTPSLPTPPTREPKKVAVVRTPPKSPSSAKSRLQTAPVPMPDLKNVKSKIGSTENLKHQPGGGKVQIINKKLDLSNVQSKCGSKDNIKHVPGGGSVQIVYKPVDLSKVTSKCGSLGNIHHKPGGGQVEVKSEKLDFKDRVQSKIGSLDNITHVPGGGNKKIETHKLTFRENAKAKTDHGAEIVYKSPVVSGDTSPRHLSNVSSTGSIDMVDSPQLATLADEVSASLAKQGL
Method: FIG. 5. […] Compounds 1, 2, and 8 were selected for their α-syn anti-oligomerization activity. Compound 7 was used as di-urea counterpart of compound 8, as compound 1 is the di-urea counterpart of compound 2, a dithiourea derivative. Tau (10 μM) was cross-linked (PICUP assay) with different concentrations of the di-substituted aminoindolyl derivatives at 50 μM (molar ratio 1:5).
Chemical and peptide source. Dimethylsulfoxide (DMSO) and thioflavin-T (ThT) were purchased from Alfa Aesar (Ward Hill, MA). Recombinant α-synuclein (α-syn) was procured from rPeptide (WatKinsville, GA). The recombinant p-tau isoform 1N4R was prepared as published previously (Fortin et al. 2021, Sui et al. 2015, Liu et al. 2020). Concerning the preparation of tau 0N4R, a bacterial expression plasmid consisting of the vector pET30a carrying a cDNA encoding the human Tau 0N4R isoform was a kind gift of Dr. Benjamin Wolozin (Boston University). E. coli stock (Rosetta BL21 E. coli (CamR) containing pET30a [0N4R tau wt] (KanR)) was grown in LB medium supplemented with kanamycin (50 μg/mL) and chloramphenicol (50 μg/mL). […] General Characterizations. ^1H and ^13C {1H} NMR spectra were recorded using a 500 MHz Bruker instrument working at a frequency of 500 MHz for ^1H and at 126 MHz for ^13C. […] Thioflavin fluorescence assays. Thioflavin fluorescence assays were used to monitor fibril formation of commercial recombinant α-syn at a final concentration of 2 μM and treated with control DMSO and different compounds. […] Kinetics of fibril formation have been performed using ThT as published previously.^6, 12, 13, 24 The fluorescence emission experiments were performed with the excitation and emission wavelengths set at 440 and 485 nm, respectively, with a Synergy HT multi-mode microplate reader (BioTek, Winooski, VT). Samples were measured in three replicates. […] For each time point, arbitrary units of fluorescence were calculated from the mean values normalized against the maximum value. The percentage of fluorescence intensity at the plateau phase in Table 1 was expressed as mean #SEM. […]

Structure (SMILES)	remaining activity at 100 µM (α-synuclein (α-syn) [1]) [%]	effect on α-syn oligomer formation (high molecular weight bands) by PICUP (α-synuclein (α-syn) [2])	effect on tau 0N4R oligomer formation by PICUP (tau isoform 0N4R)
S=C(Nc1ccc(NC(=S)Nc2ccc3[nH]ccc3c2)cc1)Nc1ccc2[nH]ccc2c1 [Compound 4, 3-(1H-indol-5-yl)-1-(4-{[(1H-indol-5-yl)carbamothioyl]amino}phenyl)thiourea]	46.2	mediocre; also recorded: reduced slightly	
O=C(Nc1ccc(NC(=O)Nc2ccc3cc[nH]c3c2)cc1)Nc1ccc2cc[nH]c2c1 [Compound 5, 3-(1H-indol-6-yl)-1-(4-{[(1H-indol-6-yl)carbamoyl]amino}phenyl)urea]	58.7	mediocre; also recorded: reduced slightly	
S=C(Nc1ccc(NC(=S)Nc2ccc3cc[nH]c3c2)cc1)Nc1ccc2cc[nH]c2c1 [Compound 6, 3-(1H-indol-6-yl)-1-(4-{[(1H-indol-6-yl)carbamothioyl]amino}phenyl)thiourea]	36.1	mediocre; also recorded: reduced slightly	
O=C(Nc1ccc(NC(=O)Nc2cccc3cc[nH]c23)cc1)Nc1cccc2cc[nH]c12 [Compound 7, 3-(1H-indol-7-yl)-1-(4-{[(1H-indol-7-yl)carbamoyl]amino}phenyl)urea]	52.4		None of these compounds were able to reduce the tau 0N4R oligomer formation
